Structures are written as SMILES.

As usually defined, the IC50 is the concentration that inhibits the measured activity by half. A higher IC50 goes with a need for much substance. The term Ki denotes a dissociation constant, usually derived from enzyme kinetics or from competition with a known ligand. A high value points to weaker binding.

Common to all, as to type: in vitro ADME
One data set addresses T1, CYP3A2 (Rattus norvegicus, UniProt P05183).
T1 construct: All liver tissue samples were extracted into liver microsomes by homogenization and centrifugation; from tissue; host or cells: liver microsomes of Sprague-Dawley rats (control or dosed with crizotinib)
T1 sequence (P05183 1-504): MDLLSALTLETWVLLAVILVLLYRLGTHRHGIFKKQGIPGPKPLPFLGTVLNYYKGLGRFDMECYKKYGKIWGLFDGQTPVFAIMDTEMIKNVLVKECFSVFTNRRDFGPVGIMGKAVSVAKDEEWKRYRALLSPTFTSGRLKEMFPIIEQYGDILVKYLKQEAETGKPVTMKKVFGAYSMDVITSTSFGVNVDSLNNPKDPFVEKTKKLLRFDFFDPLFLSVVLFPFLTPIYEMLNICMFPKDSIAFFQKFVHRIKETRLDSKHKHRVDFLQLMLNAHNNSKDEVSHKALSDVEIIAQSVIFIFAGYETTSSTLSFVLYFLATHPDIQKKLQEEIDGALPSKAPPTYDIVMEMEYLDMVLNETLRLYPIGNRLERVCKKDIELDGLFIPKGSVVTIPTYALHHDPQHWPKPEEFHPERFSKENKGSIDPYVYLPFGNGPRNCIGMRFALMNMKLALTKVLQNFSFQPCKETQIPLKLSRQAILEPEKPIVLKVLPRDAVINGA
Nature of the data set: Activity of CYP3A2 in liver microsomes of treated rats (midazolam probe). As to conditions: RLM from crizotinib-treated rats (45 mg/kg); midazolam 10 µM. The procedure:
(§1) Nine rats were randomly divided into three groups (n = 3): group E received 0.5% CMC-Na for 7 days; group F received 45 mg/kg crizotinib for 6 days; and group G received 45 mg/kg of crizotinib for 7 days. […] The blood, liver, kidney, and small intestine were harvested within 10 min and flash-frozen in liquid nitrogen before being transferred to −80 °C for later use.
(§2) All liver tissue samples were extracted into liver microsomes by homogenization and centrifugation, following the same operational steps as previously reported ([Simpson, 2010]). A new incubation system was established, which included 2 µL dextromethorphan or midazolam (the probe substrate of CYP2D1 or CYP3A2), 2 uL RLM (0.2 mg/mL) from different groups, 186 µL 1xPBS buffer, and 10 µL NADPH (1 mM). […] UPLC-MS/MS was used to detect the concentration of dextrorphan and 1-hydroxymidazolam to determine whether the activities of CYP2D1 and CYP3A2 in the liver were affected by crizotinib.
In general terms: Microsomes from liver hold many membrane-bound enzymes, among them those of drug oxidation.

Data set [1] has as its system total CYP in rat liver microsomes. As to the kind of experiment: Carbon monoxide differential UV spectrophotometric quantification of total CYP. To be noted: RLM from crizotinib-treated rats (45 mg/kg); CO quantitative method. As for the experimental part:
as §1
The CO quantitative method was utilized to measure the total quantity of CYP in rat liver microsomes. The microsomes were transferred to a 1.5 mL centrifuge tube and CO gas was introduced for 60 s. Next, sodium dithionite powder was added and mixed thoroughly. After two minutes, the absorbance of the liquid was measured at 450 nm and 490 nm ultraviolet wavelengths using an ultraviolet and visible spectrophotometer to calculate the total amount of CYP.

Data set [2] has as its system tramadol metabolism in human liver microsomes. As to the kind of experiment: Liver microsomal incubation assay: inhibition of tramadol metabolism in HLM. To be noted: human, human liver microsomes, pH 7.4, probe tramadol 100 µM, tramadol 100 µM, crizotinib 0.01-100 µM. As for the experimental part: (§3) All the substance meet the requirements for analysis.
(§4) To obtain the Michaelis kinetic parameters of tramadol in RLM and HLM, a 200 µL incubation system was established containing 2 µL RLM or HLM (0.2 mg/mL), 186 µL 1xPBS buffer (pH = 7.4), 2 µL tramadol (10–500 µM), and 10 µL NADPH (1 mM). The mixture was pre-incubated for 5 min without NADPH in a water bath shaking at 37 °C. Then, NADPH was added to initiate the reaction, and the mixture was incubated for another 30 min. The reaction was terminated by adding 400 µL of cold ACN and 20 µL of IS (500 ng/mL).
(§5) To determine the half-maximal inhibitory concentration (IC50), the concentration of crizotinib was set at 0.01, 0.1, 1, 10, 25, 50, and 100 µM, while the concentration of tramadol was constant at 60 µM in RLM or 100 µM in HLM (according to Km).
(§6) All data were presented as mean ± SD (standard deviation).

Data set [3] deals with tramadol metabolism in human liver microsomes (HLM). The data set is described as above. The procedure:
as §3, §4, §5, §6

The target of the next data set is T2, CYP2D1 (Rattus norvegicus, UniProt P10633).
T2 construct: All liver tissue samples were extracted into liver microsomes by homogenization and centrifugation; from tissue; host or cells: liver microsomes of Sprague-Dawley rats (control or dosed with crizotinib)
T2 sequence (P10633 1-504): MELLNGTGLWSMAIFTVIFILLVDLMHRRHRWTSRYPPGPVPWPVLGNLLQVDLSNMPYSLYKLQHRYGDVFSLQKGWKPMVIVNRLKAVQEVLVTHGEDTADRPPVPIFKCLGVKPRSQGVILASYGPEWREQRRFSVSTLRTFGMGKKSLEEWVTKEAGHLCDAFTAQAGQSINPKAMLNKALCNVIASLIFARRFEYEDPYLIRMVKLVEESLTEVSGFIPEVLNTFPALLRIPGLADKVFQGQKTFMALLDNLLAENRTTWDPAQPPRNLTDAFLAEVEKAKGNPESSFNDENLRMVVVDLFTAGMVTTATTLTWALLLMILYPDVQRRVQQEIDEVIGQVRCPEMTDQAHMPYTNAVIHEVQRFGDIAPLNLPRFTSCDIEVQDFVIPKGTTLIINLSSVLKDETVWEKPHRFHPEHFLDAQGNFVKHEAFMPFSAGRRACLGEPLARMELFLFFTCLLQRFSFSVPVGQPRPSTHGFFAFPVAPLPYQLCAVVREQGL
As to the kind of experiment: Activity of CYP2D1 in liver microsomes of treated rats (dextromethorphan probe). As for the experimental part:
as §1, §2

In the case of `C[C@@H](Oc1cc(-c2cnn(C3CCNCC3)c2)cnc1N)c1c(Cl)ccc(F)c1Cl` [crizotinib], the “metabolic rate of midazolam (CYP3A2 activity)” value at CYP3A2 is on record as “decreased to different extents”. Besides, the “total amount of CYP” value in data set [1] was “decreased”. The IC50 at 30 min in data set [2] was found to be 11.9 ± 0.25 µM. Moreover, the “inhibition mode of tramadol metabolism” value in data set [3] (Lineweaver-Burk plot) is recorded as “non-competitive”. Besides, the Ki in data set [3] (Lineweaver-Burk, crizotinib 0, 5, 10, 20 µM, tramadol 25-200 µM) amounted to 14.4 µM. In addition, the “metabolic rate of dextromethorphan (CYP2D1 activity)” value on CYP2D1 (RLM from crizotinib-treated rats (45 mg/kg), dextromethorphan 25 µM) is recorded as “decreased to different extents”; at CYP2D1 (crizotinib administered for seven days) it was “significant decrease”.

Source of the values: article PMC11144398, “Crizotinib inhibits the metabolism of tramadol by non-competitive suppressing the activities of CYP2D1 and CYP3A2” (PeerJ, 2024).
